Data as given in paper PMC7673538 (PLoS Biology, 2020).
Read-outs that look alike come from different tables or passages of the source.

Experiments:
CV-B3 [1] = test: microbe, parasite or virus in culture; format: cell-based, coxsackievirus B3; conditions: Enterovirus B
HRV-B14 = test: microbe, parasite or virus in culture; format: cell-based, human rhinovirus; conditions: Human rhinovirus sp.
CV-B3 [2] = test: microbe, parasite or virus in culture; format: cell-based, coxsackievirus B3; conditions: Enterovirus B, CVB3, BGM
in vitro [3] = conditions: human
EV-D68 = test: microbe, parasite or virus in culture; format: cell-based, enterovirus D68; conditions: Enterovirus D
EV-A71 = test: microbe, parasite or virus in culture; format: cell-based, enterovirus A71; conditions: Enterovirus A
PV-1 = test: microbe, parasite or virus in culture; format: cell-based, poliovirus 1; conditions: Enterovirus C, HeLa R19, read-out: EC50 PV-1
in vitro [4] = conditions: human; remark: listed apart in the source
CV-A24 = test: microbe, parasite or virus in culture; format: cell-based, coxsackievirus A24; conditions: Enterovirus C, CVA24, HeLa R19, read-out: EC50 CV-A24
in vitro [5] = conditions: monkey
CV-B3 [6] = test: microbe, parasite or virus in culture; format: cell-based, coxsackievirus B3; conditions: for EC50: Enterovirus B
HRV-A2 = test: microbe, parasite or virus in culture; format: cell-based, human rhinovirus; conditions: Human rhinovirus sp., HRVA2, HeLa R19, read-out: EC50 HRV-A2
human DAT = target: T1, human DAT (Homo sapiens, UniProt Q01959); format: cell-based
T1 construct: expressed in transfected cells; host or cells: HEK293 (gift of Dr. Hoener, F. Hoffmann-La Roche)
T1 sequence (Q01959 whole entry): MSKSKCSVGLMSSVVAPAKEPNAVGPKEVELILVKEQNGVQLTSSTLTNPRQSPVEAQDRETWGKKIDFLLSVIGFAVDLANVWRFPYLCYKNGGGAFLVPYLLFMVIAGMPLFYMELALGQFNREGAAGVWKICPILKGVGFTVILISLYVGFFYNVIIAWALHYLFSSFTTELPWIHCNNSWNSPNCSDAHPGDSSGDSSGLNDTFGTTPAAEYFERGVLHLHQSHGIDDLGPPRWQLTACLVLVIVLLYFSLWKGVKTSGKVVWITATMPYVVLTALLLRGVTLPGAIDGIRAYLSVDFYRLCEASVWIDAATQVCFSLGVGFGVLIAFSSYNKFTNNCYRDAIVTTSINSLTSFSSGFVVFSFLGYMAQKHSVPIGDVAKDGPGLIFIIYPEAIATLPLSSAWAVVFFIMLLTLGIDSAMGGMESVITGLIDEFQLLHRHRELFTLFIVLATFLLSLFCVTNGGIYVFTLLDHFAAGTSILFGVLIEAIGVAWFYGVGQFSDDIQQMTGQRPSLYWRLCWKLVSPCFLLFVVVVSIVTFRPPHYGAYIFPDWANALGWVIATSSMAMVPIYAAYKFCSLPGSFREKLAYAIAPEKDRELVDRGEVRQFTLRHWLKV

[7] = CVB3, HAP1, read-out: EC50 Hap1 Average
[8] = CVB3, HAP1, read-out: Exp 1 EC50 Hap1
[9] = CVB3, HAP1, read-out: Exp 2 EC50 Hap1
[10] = HRVB14, HeLa R19, read-out: EC50 HRV-B14
[11] = EVD68, HeLa R19, read-out: EC50 Exp1
[12] = EVD68, HeLa R19, read-out: EC50 Exp2
[13] = EVA71, HeLa R19, read-out: EC50 EV-A71
[14] = CVB3, HeLa R19, read-out: CV-B3 EC50 Average
[15] = CVB3, HeLa R19, read-out: CV-B3 Exp 1 EC50
[16] = CVB3, HeLa R19, read-out: CV-B3 Exp2 EC50
[17] = CVB3, HeLa R19, read-out: EC50 HelaR19 Average
[18] = CVB3, HeLa R19, read-out: Exp 1 EC50 HelaR19
[19] = CVB3, HeLa R19, read-out: Exp 2 EC50 HelaR19

## O=C(c1ccco1)N(Cc1ccc(S(F)(F)(F)(F)F)cc1)c1ccccc1 [Compound 19f, N-(4-(Pentafluorosulfaneyl)benzyl)-N-phenylfuran-2-carboxamide]
CV-B3 [1]; [7]
  EC50: 2.1 µM
CV-B3 [1]; [8]
  EC50: 2.3 µM
CV-B3 [1]; [9]
  EC50: 1.9 µM
HRV-B14; HRVB14, HeLa R19, read-out: EC50 Exp1
  EC50: 4.68 µM
HRV-B14; HRVB14, HeLa R19, read-out: EC50 Exp2
  EC50: 5.76 µM
HRV-B14; [10]
  EC50: 5.22 ± 0.54 µM
CV-B3 [2]; read-out: EC50 BGM Average
  EC50: 2.6 µM
CV-B3 [2]; read-out: Exp 1 EC50 BGM
  EC50: 2.22 µM
CV-B3 [2]; read-out: Exp 2 EC50 BGM
  EC50: 2.98 µM
In vitro [3]; CC50 Hap1 Average
  CC50: 62.5 µM
In vitro [3]; Exp 1 CC50 Hap1
  CC50: 61 µM
In vitro [3]; Exp 2 CC50 Hap1
  CC50: 64.1 µM
EV-D68; [11]
  EC50: 13.6 µM
EV-D68; [12]
  EC50: 15.3 µM
EV-A71; [13]
  EC50: 4.37 ± 0.5 µM
EV-A71; EVA71, HeLa R19, read-out: EC50 Exp1
  EC50: 3.87 µM
EV-A71; EVA71, HeLa R19, read-out: EC50 Exp2
  EC50: 4.87 µM
PV-1
  EC50: > 30 µM
HeLa R19 cells; human
  CC50: 32.9 ± 2 µM
HeLa R19 cells; human, monkey
  cytotoxicity (in words): cytotoxicity in a similar range as the parental compound 1
In vitro [4]; CC50 Average
  CC50: > 30 µM
In vitro [4]; CC50 HelaR19 Average
  CC50: 32 µM
In vitro [4]; Exp 1 CC50
  CC50: > 30 µM
In vitro [4]; Exp 1 CC50 HelaR19
  CC50: 30 µM
In vitro [4]; Exp2 CC50
  CC50: > 30 µM
In vitro [4]; Exp 2 CC50 HelaR19
  CC50: 34 µM
CV-A24
  EC50: > 30 µM
In vitro [5]; CC50
  CC50: 31.9 ± 1.41 µM
In vitro [5]; CC50 BGM Average
  CC50: 31.9 µM
In vitro [5]; Exp 1 CC50 BGM
  CC50: 30.5 µM
In vitro [5]; Exp 2 CC50 BGM
  CC50: 33.3 µM
CV-B3 [6]
  effect of the substitution on antiviral activity against CV-B3 (in words): only marginally affected antiviral activity
CV-B3 [6]; [14]
  EC50: 3.1 µM
CV-B3 [6]; [15]
  EC50: 3.52 µM
CV-B3 [6]; [16]
  EC50: 2.68 µM
CV-B3 [6]; [17]
  EC50: 3.28 µM
CV-B3 [6]; [18]
  EC50: 3.45 µM
CV-B3 [6]; [19]
  EC50: 3.11 µM
HRV-A2
  EC50: > 30 µM

## CNCCC(Oc1ccc(C(F)(F)F)cc1)c1ccccc1 (stereo not shown) [fluoxetine, reference compound]
Human DAT
  inhibition of DAT function (in words): promiscuously inhibited also the DAT and NET activity at 100 μM

## COc1ccc(N(Cc2ccccc2)C(=O)c2ccco2)cc1 [Compound 19c, N-Benzyl-N-(4-methoxyphenyl)furan-2-carboxamide]
CV-B3 [1]; [7]
  EC50: 2.12 µM
CV-B3 [1]; [8]
  EC50: 2.15 µM
CV-B3 [1]; [9]
  EC50: 2.09 µM
HRV-B14; [10]
  EC50: > 30 µM
CV-B3 [2]; read-out: EC50 BGM Average
  EC50: 4.3 µM
CV-B3 [2]; read-out: Exp 1 EC50 BGM
  EC50: 3.95 µM
In vitro [3]; CC50
  CC50: > 100 µM
In vitro [3]; CC50 Hap1 Average
  CC50: > 100 µM
In vitro [3]; Exp 1 CC50 Hap1
  CC50: > 100 µM
In vitro [3]; Exp 2 CC50 Hap1
  CC50: > 100 µM
EV-D68; EVD68, HeLa R19, read-out: EC50 EV-D68
  EC50: 8.94 ± 0.82 µM
EV-D68; [11]
  EC50: 8.12 µM
EV-D68; [12]
  EC50: 9.76 µM
EV-A71; [13]
  EC50: > 30 µM
PV-1
  EC50: > 30 µM
HeLa R19 cells
  cytotoxicity (in words): did not show any cytotoxicity
In vitro [4]; CC50 Average
  CC50: > 30 µM
In vitro [4]; CC50 HelaR19 Average
  CC50: > 100 µM
In vitro [4]; Exp 1 CC50
  CC50: > 30 µM
In vitro [4]; Exp 1 CC50 HelaR19
  CC50: > 100 µM
In vitro [4]; Exp2 CC50
  CC50: > 30 µM
In vitro [4]; Exp 2 CC50 HelaR19
  CC50: > 100 µM
CV-A24
  EC50: > 30 µM
In vitro [5]; CC50
  CC50: > 100 µM
In vitro [5]; CC50 BGM Average
  CC50: > 100 µM
In vitro [5]; Exp 1 CC50 BGM
  CC50: > 100 µM
In vitro [5]; Exp 2 CC50 BGM
  CC50: > 100 µM
CV-B3 [6]
  increase or decrease of antiviral activity against CV-B3: less than 3 fold
CV-B3 [6]; CVB3, HeLa
  EC50: 4.42 ± 0.36 µM
CV-B3 [6]; [14]
  EC50: 4.07 µM
CV-B3 [6]; [15]
  EC50: 4.32 µM
CV-B3 [6]; [16]
  EC50: 3.82 µM
CV-B3 [6]; [17]
  EC50: 4.41 µM
CV-B3 [6]; [18]
  EC50: 4.06 µM
CV-B3 [6]; [19]
  EC50: 4.77 µM
HRV-A2
  EC50: > 30 µM

## COc1ccc(N(Cc2ccco2)C(=O)c2ccc(F)cc2)cc1 [Compound 15, 4-Fluoro-N-(furan-2-ylmethyl)-N-(4-methoxyphenyl)benzamide]
In vitro [4]; CC50
  CC50: > 30 µM
In vitro [4]; CC50 Average
  CC50: > 30 µM
In vitro [4]; Exp 1 CC50
  CC50: > 30 µM
In vitro [4]; Exp2 CC50
  CC50: > 30 µM
CV-B3 [6]
  antiviral activity against CV-B3 (in words): abolished antiviral acitivty
CV-B3 [6]; CVB3, HeLa R19
  EC50: > 30 µM
CV-B3 [6]; [14]
  EC50: > 30 µM
CV-B3 [6]; [15]
  EC50: > 30 µM
CV-B3 [6]; [16]
  EC50: > 30 µM

## COc1ccc(N(Cc2ccc(F)cc2)C(C)=O)cc1 [Compound 5a, N-(4-fluorobenzyl)-N-(4-methoxyphenyl)acetamide]
In vitro [4]; CC50
  CC50: > 30 µM
In vitro [4]; CC50 Average
  CC50: > 30 µM
In vitro [4]; Exp 1 CC50
  CC50: > 30 µM
In vitro [4]; Exp2 CC50
  CC50: > 30 µM
CV-B3 [6]
  antiviral activity against CV-B3 (in words): loss of antiviral activity
CV-B3 [6]; CVB3, HeLa R19
  EC50: > 30 µM
CV-B3 [6]; [14]
  EC50: > 30 µM
CV-B3 [6]; [15]
  EC50: > 30 µM
CV-B3 [6]; [16]
  EC50: > 30 µM

## COc1ccc(N(Cc2ccc(F)cc2)C(=O)C2CCCO2)cc1 (stereo not shown) [Compound 5f, N-(4-Fluorobenzyl)-N-(4-methoxyphenyl)tetrahydrofuran-2-carboxamide]
In vitro [4]; CC50
  CC50: > 30 µM
In vitro [4]; CC50 Average
  CC50: > 30 µM
In vitro [4]; Exp 1 CC50
  CC50: > 30 µM
In vitro [4]; Exp2 CC50
  CC50: > 30 µM
CV-B3 [6]
  antiviral activity against CV-B3 (in words): loss of antiviral activity
CV-B3 [6]; CVB3, HeLa R19
  EC50: > 30 µM
CV-B3 [6]; [14]
  EC50: > 30 µM
CV-B3 [6]; [15]
  EC50: > 30 µM
CV-B3 [6]; [16]
  EC50: > 30 µM
